PubChem BioAssay (NCI)
Several values for one entry are separate records, joined by “and”; a condition that tells them apart may be missing. Equal entries are not always repeated.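 Each compound was tested at five concentrations against cells in 96-well plates for 48 hours. Here, GI50 denotes the concentration required for 50% inhibition of growth. Definition used: TGI = concentration required for complete inhibition of growth.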

How the values were obtained:
Test in all cases: DTP human tumour cell line panel, 48 h
COLO 205 colon = test system: COLO 205 colon
EKVX NSCLC = test system: EKVX NSCLC
MDA-MB-435 = test system: MDA-MB-435
MOLT-4 leukemia = test system: MOLT-4 leukemia
NCI-H226 lung = test system: NCI-H226 lung
NCI-H23 lung = test system: NCI-H23 lung
OVCAR-8 ovarian = test system: OVCAR-8 ovarian
RPMI-8226 leukemia = test system: RPMI-8226 leukemia
TK-10 renal = test system: TK-10 renal
SNB-75 CNS = test system: SNB-75 CNS

| Structure (SMILES) | GI50 (COLO 205 colon) | TGI (COLO 205 colon) [µM] | GI50 (EKVX NSCLC) [µM] | TGI (EKVX NSCLC) [µM] | GI50 (MDA-MB-435) [µM] | TGI (MDA-MB-435) [µM] | GI50 (MOLT-4 leukemia) [µM] | TGI (MOLT-4 leukemia) [µM] | GI50 (NCI-H226 lung) | TGI (NCI-H226 lung) [µM] | GI50 (NCI-H23 lung) [µM] | TGI (NCI-H23 lung) [µM] | GI50 (OVCAR-8 ovarian) [µM] | TGI (OVCAR-8 ovarian) [µM] | GI50 (RPMI-8226 leukemia) [µM] | TGI (RPMI-8226 leukemia) [µM] | GI50 (TK-10 renal) [µM] | TGI (TK-10 renal) [µM] | TGI (SNB-75 CNS) [µM] | GI50 (SNB-75 CNS) [µM] |
| --- | --- | --- | --- | --- | --- | --- | --- | --- | --- | --- | --- | --- | --- | --- | --- | --- | --- | --- | --- | --- |
| O=C(NO)C(O)C(O)C(O)C(O)CO (configuration not stated) | > 100 µM and 51.5 µM | > 100 | > 100 | > 100 | > 100 | > 100 | > 100 | > 100 | > 71.5 µM and 50.4 µM | > 100 | > 100 | > 100 | > 100 | > 100 | > 100 | > 100 | > 100 | > 100 | – | – |
| Cc1cccc(CC(C)(C)C)c1NC(=O)C(=O)C(C(=O)c1ccc2ccccc2c1)C1OC(=O)c2ccccc21 (configuration not stated) | – | 92 | – | 82.1 | – | – | – | – | – | 7.12 | – | 19.2 | – | – | – | > 100 | – | – | – | – |
| Cc1cccc(N2C(=O)/C(=C/c3ccc(N(CCC#N)CCC#N)cc3C)N=C2c2cc([N+](=O)[O-])ccc2Cl)c1 | – | > 100 | – | > 100 | – | – | – | > 100 | – | > 100 | – | > 100 | – | > 100 | – | > 100 | – | > 100 | > 100 | – |
| CCOC(=N)CC(=O)NC(C)c1ccccc1 (configuration not stated) | – | > 100 | – | > 100 | – | – | – | > 100 | – | > 100 | – | > 100 | – | > 100 | – | – | – | > 100 | > 100 | – |
| O=C1c2cccc3cccc(c23)C(=O)N1CCCN1CCN(CCCN2C(=O)c3cccc4cccc(c34)C2=O)CC1 | – | > 100 | – | > 100 | – | – | – | > 100 | – | > 100 | – | > 100 | – | > 100 | – | > 100 | – | > 100 | > 100 | – |
| CCN1CC2(C)CC[C@@H](OC)C34[C@@H]2[C@H](OC(C)=O)C2(OCO[C@@]25C[C@H](OC)C2C[C@]3(O)[C@@H]5[C@H]2O)[C@H]14 | – | > 100 | – | > 100 | – | – | – | – | – | > 100 | – | > 100 | – | > 100 | – | – | – | > 100 | > 100 | – |
| Cn1c(COC(=O)NCCN2CCOCC2)nc2c(N3CCOCC3)nc(-c3ccccc3)nc21 | 1.49 µM | 3.36 | 1.48 | 3.36 | 1.07 | 2.47 | 0.972 | 5.96 | 4.38 µM | 20.3 | 1.84 | 4.1 | 1.3 | 3.4 | – | – | 1.48 | 2.88 | 2.67 | 1.11 |
| C/C(=N\NC(=S)N1CCC(C2CCN(C(=S)N/N=C(\C)c3ccccn3)CC2)CC1)c1ccccn1 | – | > 100 | – | > 100 | – | – | – | – | – | > 100 | – | > 100 | – | > 100 | – | > 100 | – | > 100 | 67.4 | – |
| O=C1CC2Sc3ccccc3N=C2N1c1ccc(Cl)cc1Cl (configuration not stated) | – | > 100 | – | > 100 | – | – | – | > 100 | – | > 100 | – | > 100 | – | > 100 | – | > 100 | – | > 100 | > 100 | – |
| O=C1/C(=C/c2ccccc2)CN(C(=O)OCC(Cl)(Cl)Cl)C/C1=C\c1ccccc1 | – | 11.2 | – | – | – | – | – | 10.3 | – | – | – | 9.46 | – | 3.78 | – | 0.649 | – | 17.1 | 13.6 | – |
| Cc1ns/c(=N\C(=S)N(C)C)n1C | – | – | – | > 100 | – | – | – | > 100 | – | > 100 | – | > 100 | – | > 100 | – | > 100 | – | > 100 | > 100 | – |
| CC1(C)CC2(C)OC2C2(C1)N=NC(=Nc1ccccc1)O2 (configuration not stated) | 10.9 µM | 24.9 | – | – | 3.01 | 24.2 | 2.63 | 9.96 | 10.7 µM | 29.6 | 5.93 | 29.9 | 2.9 | > 100 | 2.41 | 6.82 | 3.44 | 8.31 | 30.4 | 16.4 |
| C#Cc1ccc(-n2c(/C=C/c3cc(OC)c(OC)c(OC)c3)nc3ncccc3c2=O)cc1 | 3.19 µM | 11.9 | – | – | 1.98 | 5.35 | – | – | 12.9 µM | > 100 | 17.3 | > 100 | 9.67 | > 100 | 3.6 | > 100 | 17.3 | 62.9 | > 100 | 3.88 |
| CCCCCCCCCCCCCCCCCC1=NC(C)(C)CN1CCO | 1.55 µM | 2.93 | 3.8 | 18.6 | 1.73 | 3.42 | 1.96 | 4.73 | 2.84 µM | 9.04 | 1.71 | 3.33 | – | – | – | – | 1.73 | 3.31 | 4.01 | 1.81 |
| COc1ccc(-n2nc(C)c3c2N(C)C2(C)C[C@@H]4C3(C)[C@@H]3CC4(C2)N(C)c2c(c(C)nn2-c2ccc(OC)cc2)[C@H]3C)cc1 (some centres not stated) | – | – | – | – | – | – | – | – | 5.34 µM | > 100 | 18.7 | 99.9 | 4.19 | 92.7 | – | – | 4.77 | 21.3 | – | – |
| O=C1c2ccccc2C(=O)c2c1ccc1c3ccccc3n(Cc3ccccc3)c21 | – | > 100 | – | > 100 | – | – | – | > 100 | – | > 100 | – | – | – | > 100 | – | > 100 | – | – | > 100 | – |
| O=C(CC(C(=O)O)N1CCOCC1)c1ccccc1 (configuration not stated) | – | 39.7 | – | 38.4 | – | – | – | 35.5 | – | > 100 | – | 40.6 | – | 94.8 | – | 42.1 | – | 30.1 | 83.4 | – |
| C[C@]12CC[C@@H]3c4ccc(O)cc4CC[C@H]3[C@@H]1CC[C@@H]2NS(=O)(=O)c1ccc(-c2ccccc2)cc1 | 1.86 µM | 3.38 | – | – | 3.21 | 12.3 | 3.47 | > 100 | 3.13 µM | 19.4 | 3.49 | 17.2 | 4.69 | > 100 | 2.51 | 11.4 | 4.42 | 55.9 | 55.2 | 3.5 |
| O=C(OCc1nc2ccc(Br)cc2c(=O)n1-c1ccccc1)c1ccccc1O | – | > 100 | – | > 100 | – | – | – | > 100 | – | > 100 | – | > 100 | – | > 100 | – | > 100 | – | > 100 | > 100 | – |
